Tests used:
Format in all cases: cell-based
Citrobacter diversus = assay: MIC against Gram-negative bacteria: Citrobacter diversus; conditions: 5×10^5 CFU/mL
Protocol: (§1) 1. Gram-negative bacteria, such as E. coli BL21, Pseudomonas aeruginosa, Klebsiella pneumonia, Enterobacter cloacae, Aeromonas hydrophila, Citrobacter diversus, Moraxella catarrhalis, Proteus mirabilis, Proteus vulgaris, Serratia marcescens, etc were streaked on solid LB medium and cultured respectively. Then, typical clones were picked, inoculated into common liquid LB medium respectively, and cultured at 37° C. with shaking at 185 rpm until the McFarland specific turbidity was 0.5. The bacterial culture of each of Gram-negative bacteria was centrifuged at 4000×g for 3 min, the supernatant was discarded, and the thalli were resuspended with fresh LB medium.
(§2) 2. The above-mentioned bacterial suspensions were diluted and inoculated into 96-well plates with the final concentration of the bacterial suspension being 5×10^5 CFU/mL per well.
(§3) 3. Each of the purified human-originated EGF domain proteins (PRT1 to PRT1498 in Table 1) was added to each of the above wells and subjected to two-fold serial dilution in concentration. Three parallel wells were set up for each concentration in the gradient.
(§4) 4. The above-mentioned 96-well plates were placed and cultured at 37° C. in shaking incubator shaking at 175 rpm. […] The minimal inhibitory concentration MIC is defined as the lowest concentration of the recombinant protein at which there is no growth of the bacteria.

Moraxella catarrhalis = assay: MIC against Gram-negative bacteria: Moraxella catarrhalis; conditions: 5×10^5 CFU/mL
Protocol: as §1, §2, §3, §4

Klebsiella pneumonia = assay: MIC against Gram-negative bacteria: Klebsiella pneumonia; conditions: 5×10^5 CFU/mL
Protocol: as §1, §2, §3, §4

Serratia marcescens = assay: MIC against Gram-negative bacteria: Serratia marcescens; conditions: 5×10^5 CFU/mL
Protocol: as §1, §2, §3, §4

E. coli BL21 = assay: MIC against Gram-negative bacteria: E. coli BL21; conditions: 5×10^5 CFU/mL
Protocol: as §1, §2, §3, §4

Proteus mirabilis = assay: MIC against Gram-negative bacteria: Proteus mirabilis; conditions: 5×10^5 CFU/mL
Protocol: as §1, §2, §3, §4

Enterobacter cloacae = assay: MIC against Gram-negative bacteria: Enterobacter cloacae; conditions: 5×10^5 CFU/mL
Protocol: as §1, §2, §3, §4

Pseudomonas aeruginosa = assay: MIC against Gram-negative bacteria: Pseudomonas aeruginosa; conditions: 5×10^5 CFU/mL
Protocol: as §1, §2, §3, §4

E. coli DH5α = assay: Antibacterial activity: MIC and growth curve against E. coli DH5α in 96-well plate; conditions: minimal inhibitory concentration against E. coli DH5α; 96-well plate, 5×10^5 CFU/mL, 37° C., judged after 8 h
Protocol: 1. E. coli DH5α was exemplified. E. coli DH5α was streaked and cultured on LB solid medium. Then, a typical clone was picked and inoculated into common LB liquid medium, cultured at 37° C. with shaking at 185 rpm until the logarithmic growth phase was reached (OD600 of about 0.5). The bacterial culture was centrifuged at 4000×g for 3 min, the supernatant was discarded, and the thalli were resuspended with fresh LB medium.
2. The above-mentioned bacterial suspension was diluted and inoculated into a 96-well plate with the total volume of 100 μL per well and a bacterial count of 5×10^5 CFU/mL.
3. The recombinant protein hF VII-EGF1 was added to the above-mentioned wells with the final protein concentration in the well of the highest protein concentration being 50 μg/mL. Basing on this final concentration, a two-fold serial dilution was performed till a protein concentration gradient consisting of 50, 25, and 12.5 μg/mL was set up. Three parallel wells were set up for each concentration in the gradient.
as §4, with “plate was” for “plates were”, “rpm. Samples were taken every 30 min, the absorbance values were determined at 600 nm wavelength under a ultra violet spectrophotometer, and an inhibition curve was plotted.” for “rpm.”
According to the experimental procedures in Example 14, the minimal inhibitory concentrations (MIC, μg/mL) of the other human-originated EGF domain proteins (PRT2 to PRT1498 in Table 1) for E. coli DH5α were determined.

Aeromonas hydrophila = assay: MIC against Gram-negative bacteria: Aeromonas hydrophila; conditions: 5×10^5 CFU/mL
Protocol: as §1, §2, §3, §4

Proteus vulgaris = assay: MIC against Gram-negative bacteria: Proteus vulgaris; conditions: 5×10^5 CFU/mL
Protocol: as §1, §2, §3, §4

[1] = C. diversus, 10 h cultivation at 37° C.
[2] = M. catarrhalis, 10 h cultivation at 37° C.
[3] = K. pneumonia, 10 h cultivation at 37° C.
[4] = S. marcescens, 10 h cultivation at 37° C.
[5] = E. coli BL21, 10 h cultivation at 37° C.
[6] = P. mirabilis, 10 h cultivation at 37° C.
[7] = E. cloacae, 10 h cultivation at 37° C.
[8] = P. aeruginosa, 10 h cultivation at 37° C.
[9] = A. hydrophila, 10 h cultivation at 37° C.
[10] = P. vulgaris, 10 h cultivation at 37° C.
[11] = 10 h cultivation at 37° C., two-fold serial dilution

Row | Substance | MIC (μg/mL) C. diversus (Citrobacter diversus; [1]) | MIC (μg/mL) M. catarrhalis (Moraxella catarrhalis; [2]) | MIC (μg/mL) K. pneumonia (Klebsiella pneumonia; [3]) | MIC (μg/mL) S. marcescens (Serratia marcescens; [4]) | MIC (μg/mL) E. coli BL21 (E. coli BL21; [5]) | MIC (μg/mL) P. mirabilis (Proteus mirabilis; [6]) | MIC (μg/mL) E. cloacae (Enterobacter cloacae; [7]) | MIC (μg/mL) P. aeruginosa (Pseudomonas aeruginosa; [8]) | MIC (E. coli DH5α) | MIC (μg/mL) A. hydrophila (Aeromonas hydrophila; [9]) | MIC (μg/mL) P. vulgaris (Proteus vulgaris; [10]) | other results
1 | PRT251 (FSHLCLEDHNSYCINGACAFHHELEKAICRCFTGYTGERCE; listed as Homo sapiens) | 25 µg/mL | 12.5 µg/mL | 12.5 µg/mL | 12.5 µg/mL | 12.5 µg/mL | 12.5 µg/mL | 25 µg/mL | 25 µg/mL | 25 µg/mL | 12.5 µg/mL | 12.5 µg/mL | –
2 | PRT1069 (VTNPCDRKKCEWLCLLSPSGPVCTCPNGKRLDNGTCV; listed as Homo sapiens) | – | – | – | – | – | – | – | – | 12.5 µg/mL | – | – | MIC C. diversus (Citrobacter diversus; [11]): 50 µg/mL; MIC M. catarrhalis (Moraxella catarrhalis; [11]): 25 µg/mL; MIC K. pneumonia (Klebsiella pneumonia; [11]): 25 µg/mL; MIC S. marcescens (Serratia marcescens; [11]): 25 µg/mL; MIC E. coli BL21 (E. coli BL21; [11]): 50 µg/mL; MIC P. mirabilis (Proteus mirabilis; [11]): 12.5 µg/mL; MIC E. cloacae (Enterobacter cloacae; [11]): 50 µg/mL; MIC P. aeruginosa (Pseudomonas aeruginosa; [11]): 12.5 µg/mL; MIC A. hydrophila (Aeromonas hydrophila; [11]): 12.5 µg/mL; MIC P. vulgaris (Proteus vulgaris; [11]): 25 µg/mL
3 | PRT847 (CDCSPHGALSIPCNSSGKCQCKVGVIGSICDRCQDGYYGFSKNGCLP; listed as Homo sapiens) | 25 µg/mL | 12.5 µg/mL | 12.5 µg/mL | 12.5 µg/mL | 25 µg/mL | 12.5 µg/mL | 25 µg/mL | 12.5 µg/mL | 12.5 µg/mL | 12.5 µg/mL | 12.5 µg/mL | –
4 | PRT165 (DVRACSSAPCANNGTCVSLDDGLYECSCAPGYSGKDCQ; listed as Homo sapiens) | 25 µg/mL | 25 µg/mL | 12.5 µg/mL | 12.5 µg/mL | 12.5 µg/mL | 12.5 µg/mL | 25 µg/mL | 25 µg/mL | 12.5 µg/mL | 25 µg/mL | 25 µg/mL | –
5 | PRT205 (SAHVCSQQCSGHGVCDSRNKCHCSPGYKPPNCQ; listed as Homo sapiens) | 12.5 µg/mL | 25 µg/mL | 25 µg/mL | 12.5 µg/mL | 12.5 µg/mL | 12.5 µg/mL | 12.5 µg/mL | 12.5 µg/mL | 12.5 µg/mL | 25 µg/mL | 25 µg/mL | –
6 | PRT692 (DVDECATGGRCQHGECANTRGGYTCVCPDGFLLDSSRSSCI; listed as Homo sapiens) | – | – | – | – | – | – | – | – | 50 µg/mL | – | – | MIC C. diversus (Citrobacter diversus; 96-well plate, 37° C., 10 h): 50 µg/mL; MIC M. catarrhalis (Moraxella catarrhalis; 96-well plate, 37° C., 10 h): 25 µg/mL; MIC K. pneumonia (Klebsiella pneumonia; 96-well plate, 37° C., 10 h): 50 µg/mL; MIC S. marcescens (Serratia marcescens; 96-well plate, 37° C., 10 h): 50 µg/mL; MIC E. coli BL21 (E. coli BL21; 96-well plate, 37° C., 10 h): 25 µg/mL; MIC P. mirabilis (Proteus mirabilis; 96-well plate, 37° C., 10 h): 12.5 µg/mL; MIC E. cloacae (Enterobacter cloacae; 96-well plate, 37° C., 10 h): 25 µg/mL; MIC P. aeruginosa (Pseudomonas aeruginosa; 96-well plate, 37° C., 10 h): 12.5 µg/mL; MIC A. hydrophila (Aeromonas hydrophila; 96-well plate, 37° C., 10 h): 12.5 µg/mL; MIC P. vulgaris (Proteus vulgaris; 96-well plate, 37° C., 10 h): 25 µg/mL
7 | PRT234 (DINECATLSKVSCGKFSDCWNTEGSYDCVCSPGYEPVSGAKTFKNESENTCQ; listed as Homo sapiens) | 25 µg/mL | 12.5 µg/mL | 12.5 µg/mL | 25 µg/mL | 50 µg/mL | 25 µg/mL | 25 µg/mL | 25 µg/mL | 25 µg/mL | 12.5 µg/mL | 12.5 µg/mL | –
8 | PRT1383 (GTRSCPWDCGEGGRCVDGRCVCWPGYTGEDC; listed as Homo sapiens) | – | – | – | – | – | – | – | – | 12.5 µg/mL | – | – | MIC against C. diversus (Citrobacter diversus; Citrobacter diversus, 10 h cultivation at 37° C.): 25 µg/mL; MIC against M. catarrhalis (Moraxella catarrhalis; Moraxella catarrhalis, 10 h cultivation at 37° C.): 12.5 µg/mL; MIC against K. pneumonia (Klebsiella pneumonia; Klebsiella pneumonia, 10 h cultivation at 37° C.): 25 µg/mL; MIC against S. marcescens (Serratia marcescens; Serratia marcescens, 10 h cultivation at 37° C.): 50 µg/mL; MIC against E. coli BL21 (E. coli BL21; [5]): 12.5 µg/mL; MIC against P. mirabilis (Proteus mirabilis; Proteus mirabilis, 10 h cultivation at 37° C.): 50 µg/mL; MIC against E. cloacae (Enterobacter cloacae; Enterobacter cloacae, 10 h cultivation at 37° C.): 12.5 µg/mL; MIC against P. aeruginosa (Pseudomonas aeruginosa; Pseudomonas aeruginosa, 10 h cultivation at 37° C.): 12.5 µg/mL; MIC against A. hydrophila (Aeromonas hydrophila; Aeromonas hydrophila, 10 h cultivation at 37° C.): 50 µg/mL; MIC against P. vulgaris (Proteus vulgaris; Proteus vulgaris, 10 h cultivation at 37° C.): 12.5 µg/mL
9 | PRT422 (DVDECALGTHNCSEAETCHNIQGSFRCLRFECPPNYVQVSKTKCE; listed as Homo sapiens) | – | – | – | – | – | – | – | – | 12.5 µg/mL | – | – | MIC (Citrobacter diversus; [1]): 12.5 µg/mL; MIC (Moraxella catarrhalis; [2]): 12.5 µg/mL; MIC (Klebsiella pneumonia; [3]): 25 µg/mL; MIC (Serratia marcescens; [4]): 25 µg/mL; MIC (E. coli BL21; [5]): 25 µg/mL; MIC (Proteus mirabilis; [6]): 25 µg/mL; MIC (Enterobacter cloacae; [7]): 12.5 µg/mL; MIC (Pseudomonas aeruginosa; [8]): 12.5 µg/mL; MIC (Aeromonas hydrophila; [9]): 25 µg/mL; MIC (Proteus vulgaris; [10]): 12.5 µg/mL
10 | PRT225 (DIDECSYSSYLCQYRCINEPGRFSCHCPQGYQLLATRLCQ; listed as Homo sapiens) | 25 µg/mL | 50 µg/mL | 50 µg/mL | 25 µg/mL | 50 µg/mL | 25 µg/mL | 25 µg/mL | 12.5 µg/mL | 12.5 µg/mL | 12.5 µg/mL | 12.5 µg/mL | –
11 | PRT837 (RFSLCPGGCQSHGQCQPPGVCACEPGWGGPD; listed as Homo sapiens) | 12.5 µg/mL | 25 µg/mL | 25 µg/mL | 12.5 µg/mL | 12.5 µg/mL | 12.5 µg/mL | 12.5 µg/mL | 25 µg/mL | 25 µg/mL | 25 µg/mL | 12.5 µg/mL | –
12 | PRT842 (CGCSFHSHCRKRGPGFCDECQDWTWGEHCERCRPGSFGNATGSRGCRP; listed as Homo sapiens) | 12.5 µg/mL | 25 µg/mL | 25 µg/mL | 25 µg/mL | 12.5 µg/mL | 12.5 µg/mL | 12.5 µg/mL | 25 µg/mL | 12.5 µg/mL | 25 µg/mL | 12.5 µg/mL | –

— US9833497B2, “Human originated EGF domain proteins and use of the same” (CHENGDU SOURCEBIO LIMITED-LIABILITY COMPANY, priority 2013, dated 2017)
